Experiments:
[1] = clinical trial, reported in background; cited from earlier work
[2] = Fatty acid composition of oils before and after heating (air incorporated by stirring) by Gas Liquid Chromatography; assay type: physicochemical; details: from the fish oil source, heated with air incorporated
Description: The heat stability of the highly unsaturated and easily oxidisable EPA/DHA in the oil blend of the invention, EPA/DHA from available sources of enriched fish oil was blended with groundnut oil in various proportions and the stability of the formulations tested is importantly to further confirm the unexpected and synergistic heat stability achieved by the oil formulation of the invention incorporating the EPA/DHA, oil blends with varying amount of active benefit agent EPA/DHA heated from ambient to upto 220 deg.C were tested. To maximize the process of deterioration, apart from heating at 180 deg.C, 200 deg.C and 220 deg. C., air was incorporated during heating by using a magnetic stirrer.

Row | SMILES | Effect on triglyceride levels [1] | Heat stability of the fatty acid [2]
1 | CC/C=C\C/C=C\C/C=C\CCCCCCCC(=O)O [ALNA, Alpha linolenic acid] | not effective to reduce triglyceride levels | 
2 | CC/C=C\C/C=C\C/C=C\C/C=C\C/C=C\C/C=C\CCC(=O)O [DHA, Docosa Hexaenoic Acid] |  | heat stable even at temperatures of up to 220 deg. C.
3 | CC/C=C\C/C=C\C/C=C\C/C=C\C/C=C\CCCC(=O)O [EPA, Eicosa Pentaenoic Acid] |  | heat stable even at temperatures of up to 220 deg. C.

Reference: patent US8114453B2, “Synergistically heat stable oil media having eicosa pentanoic acid (EPA) and docosa hexaenoic acid (DHA)” (Recon Oil Industries Private Limited, priority 2005, dated 2012)
